Article PMC5972026 (Journal of medicinal chemistry, 2017)
“Also recorded” adds a separate entry of the source. Counter-ions that a name gives are not always drawn.

What was measured:
A/M2 V27A mutant channel [1] = target: T1, A/M2 V27A mutant channel (Influenza A virus, UniProt P0DOF5, V27A); assay type: cell-based
A/M2 S31N mutant channel = conditions: cited from earlier work
A/M2 V27A mutant channel [2] = target: T1, A/M2 V27A mutant channel; conditions: cited from earlier work
[3] = tested on: A/WSN/33 virus (H1N1 subtype), N31S/V27A M2; assay type: cell-based, influenza A virus

SMILES	Antiviral activity in 46-h PRA [3]	Binding behaviour (A/M2 V27A mutant channel [1])	further results
NC12CC3CC(CC(C3)C1)C2 [Amantadine, 1-aminoadamantane]			Inhibition by 100 μM for 2 min (%) (A/M2 V27A mutant channel [1]): 8.9 ± 1.0%; IC50 (A/M2 S31N mutant channel): 200 µM; Activity against the V27A mutant (A/M2 V27A mutant channel [2]): totally inactive
C1CC(C23CC4CC(CC(C4)C2)C3)CCN1 [Compound 2, 4-(1-adamantyl)piperidine hydrochloride]	weak activity; also recorded: minimal antiviral activity	fast and weak	
C1CC(C2C3CC4CC(C3)CC2C4)CCN1 (stereo not drawn) [Compound 3, 4-(Adamantan-2-yl)piperidine hydrochloride]	inactive		
N=C(N)N1CCC(C23CC4CC(CC(C4)C2)C3)CC1 [Compound 7, N-amidyl-4-(1-adamantyl)piperidine hydrochloride]	inactive	fast and weak binder	
C1CCC(C23CC4CC(CC(C4)C2)C3)NC1 (stereo not drawn) [Compound 8, 2-(1-adamantyl)piperidine hydrochloride]	inactive	no remarkable binding at all	Time after which inhibition is at steady-state (A/M2 V27A mutant channel [1]): ≤ 1 min
N=C(N)N1CCC(C=C2C3CC4CC(C3)CC2C4)CC1 [Compound 19, 4-[(adamantan-2-ylidene)methyl]piperidine-1-carboximidamide hydrochloride]	inactive		
